Data set [1] deals with Winterweizens Sorte Mironowskaya 808. The data set is described as follows: Field test of gametocidal activity (anther sterilisation), winter wheat Mironowskaya 808. Format: in vivo, Weizen. The note with it: for Kornzahl der Ähre bei freier Bestäubung / Kornzahl der Ähre im Isolator / Prozentsatz des Ansetzens von Samen bei freier Bestäubung: Mironowskaya 808, period V of organogenesis, 1% aqueous emulsion, 10 kg/ha; for Prozentsatz des Ansetzens von Samen bei freier Bestäubung: control = 100; for pest or weed control at 1 %, 10000 g/ha: read-out: Prozentsatz der Sterilität %. The source says: (§1) Die gametozide Aktivität der erfindungsgemäßen Sterilisationsmittel war in Feldversuchen in verschiedenen bodenklimatischen Zonen mit Teilstücken von 10 m^2 Größe in dreibis viermaliger Wiederholung festgestellt. Jedes Sterilisationsmittel wurde mindenstens 5 Jahre lang geprüft.
(§2) Die Entwicklung der Perioden der Organogenese wird zytologisch überwacht. Die Behandlung von Pflanzen mit dem Sterilisationsmittel erfolgt am Anfang der fünften Periode der Organogenese nach Kupermann.
(§3) Mit dem Ährenschieben verwirklicht man die Isolierung von Hauptähren und anderen Stockwerken in Pergametbeuteln. Bei Weizen und Tritikale werden Einzelisolatoren benutzt. Bei Roggen schließt man je 1 Ähre von […] verschiedenen nebeneinander befindlichen Pflanzen unter einen gemeinsamen Isolator ein. Bei Hirse wird jede Rispe getrennt isoliert. Der Sterilitätsprozentsatz (X) für Weizen, Roggen, Tritikale und Hirse wird nach der Formel [formula] ermittelt.
(§4) Die Kornzahl in nicht isolierten Ähren von Kontrollpflanzen wird bedingt für 100 % Ansetzen bei freier Bestäubung angenommen.
(§5) Um zuverlässige Angaben zu erhalten, verwendet man 20 bis 25 Isolatoren je Wiederholung für Weizen und Tritikale, 10 bis 15 Isolatoren jeder Wiederholung für Roggen und Hirse.
Pflanzen des Winterweizens Sorte Mironowskaya 808 werden in der V.Periode der Organogenese durch Zerstäubung der 2%igen wäßrigen Emulsion von 1,1,3-Tribrompropan mit Hilfe einer Rückenspritze behandelt.
Als Emulgierungsmittel setzt man 0,5 Masse% C12-C14--Kalziumalkylbenzolsulphonat zu. Als Adjuvans enthält die Emulsion 0,01 Masse% Dimethylsulfoxid. Der Verbrauch an Präparat beträgt 20 kg/ha bei 1000 Liter Wasserdurchsatz. Als Kontrolle dienen Pflanzen, behandelt mit einem Verdünner ohne Sterilisationsmittel. Die Ergebnisse sind in der Tabelle 1 angegeben.
Der ProzeB wird analog zu dem in Beispiel 1 beschriebenen durchgeführt. Als Sterilisationsmittel verwendet man eine 2%ige waßrige Emulsion von 1,1,3-Tribrom-4-chlorbutan, 1,1,2,3-Tetrabrompropan. Die Prüfergebnisse sind in der Tabelle 1 angegeben.
Der Prozeß wird analog zu dem in Beispiel 1 beschriebenen durchgeführt, nur daß man 1%ige wäßrige Emulsion von 1,2,3-Tribrompropan, 1,2-Dibrompropan, 1,1,3-Tribrom-3--chlorpropan, 1,2-Dibrom-3-chlorpropan, 1,3-Dibrompropan, 1,1,1,3-Tetrabromheptan, 1,1,3-Tribromheptan, 1,2-Dibromheptan verwendet. Die Präparatdosis beträgt 10 kg ha. Die Prüfergebnisse sind in der Tabelle 1 angegeben. Die gleichen Ergebnisse sind bei der Behandlung des Weizens Sorte Mironowskaya 808 in der VI. Periode der Organogenese erhalten.

The test system of data set [2] is Sommerweizens Sorte Moskowskaya 35. The data set is described as follows: Field test of gametocidal activity, spring wheat Moskowskaya 35. Format: in vivo, Weizen. The note with it: for Kornzahl der Ähre bei freier Bestäubung / Kornzahl der Ähre im Isolator / Prozentsatz des Ansetzens von Samen bei freier Bestäubung: Moskowskaya 35, period V, 1% aqueous emulsion, 6 kg/ha in 600 l water; for Prozentsatz des Ansetzens von Samen bei freier Bestäubung: control = 100; for pest or weed control at 6000 g/ha: read-out: Prozentsatz der Sterilität.
Excerpt: as §1, §2, §3, §4, §5
Pflanzen des Sommerweizens Sorte Moskowskaya 35 werden in der V. Periode der Organogenese (nach Kupermann) mit einer l%igen wäßrigen Emulsion von 1,1,3-Tribrompropan, […], 1,1,2,3-Tetrabrompropan, 1,2,3-Tribrompropan, 1,2-Dibrompropan, 1,1,3-Tribrom-3-chlorpropan, 1,2-Dibrom-3-chlorpropan, 1,3-Dibrompropan, 1,1,1,3-Tetrabromheptan bzw. 1,1,3-Tribromheptan behandelt. Die Emulsion enthält als Emulgierungsmittel 0,5 Masse% C12-C14-Kalzium- alkylbenzolsulfonat und als Adjuvans 0,01 Masse% Dimethylformamid. Der Verbrauch an Präparat beträgt 6 kg/ha bei 600 1 Wasserdurchsatz. Als Kontrolle dienen Pflanzen, behandelt mit dem Verdünner ohne Sterilisationsmittel.
Die Prüfergebnisse sind in der Tabelle 2 angegeben. Die gleichen Ergebnisse sind bei der Behandlung des Sommerweizens Sorte Moskowskaya 35 in der VI.Periode der Organogenese erhalten.

The subject of data set [3] is Sommerweizens Sorte Rodina. Description: Field test of gametocidal activity, spring wheat Rodina. Type of data set: in vivo, Weizen. The following applies: period V, 1% aqueous emulsion, 6 kg/ha in 600 l water.
Excerpt: as §1, §2, §3, §4, §5
Pflanzen des Sommerweizens Sorte Rodina werden in der V.Periode der Organogenese (nach Kupermann) mit einer l%igen wäßrigen Emulsion von 1,3-Dibrompropan, 1,1,1,3-Tetrabromheptan, 1,1,3-Tribromheptan bzw. 1,2-Dibromheptan behandelt. Die Emulsion enthalt 0,5 Masse% C12-C14 Kalziumalk^ylbenzol- sulfonat und 0,01 Masse% Dodezylsulfat. Der Verbrauch an Präparat beträgt 6 Kg/ha bei 600 1 Wasserdurchsatz. Als Kontrolle dienen Pflanzen, behandelt mit dem Verdünner ohne Sterilisationsmittel.
Die Prüfergebnisse sind in der Tabelle 3 angegeben. Die gleichen Ergebnisse sind bei der Behandlung des Sommerweizens Sorte Rodina in der VI. Periode der Organogenese erhalten.

Data set [4] deals with Sommerweizens Sorte Botanicheskaya 4. Description: Field test of gametocidal activity, spring wheat Botanicheskaya 4. The following applies: period V, 1% aqueous emulsion, 6 kg/ha in 600 l water. Format: in vivo, Weizen.
Excerpt: as §1, §2, §3, §4, §5
Pflanzen des Sommerweizens Sorte Botanicheskaya 4 werden in der V. Periode der Organogenese (nach Kupermann) mit einer 1%igen wäßrigen Emulsion von 1,3-Dibrompropan, 1,1,1,3-Tetrabromheptan, 1,1,2-Tribromheptan bzw. 1,2--Dibromheptan behandelt. Die Emulsion enthält 0,5 Masse% C12-C14-Kalziumalkylbenzolsulfonat und 0,01 Masse% Dimethylsulfoxid als Adjuvans. Der Verbrauch an Präparat beträgt 6 kg/ha bei 600 1 Wasserdurchsatz. Als Kontrolle dienen Pflanzen, behandelt mit dem Verdünner ohne Sterilisationsmittel.
Die Prüfergebnisse sind in der Tabelle 4 angegeben. Die gleichen Ergebnisse sind bei der Behandlung des Sommerweizens Sorte Botanicheskaya 4 in der VI. Periode der Organogenese erhalten.

The test system of the next data set is diploidem Roggen Chulpan. The data set is described as follows: Field test of gametocidal activity, diploid rye Chulpan. The following applies: for Kornzahl der Ähre bei freier Bestäubung / Kornzahl der Ähre im Isolator / Prozentsatz des Ansetzens von Samen bei freier Bestäubung: Chulpan, period V, 1% aqueous emulsion, 10 kg/ha; for Prozentsatz des Ansetzens von Samen bei freier Bestäubung: control = 100; for pest or weed control at 10000 g/ha: read-out: Prozentsatz der Sterilität. Type of data set: in vivo.
Excerpt: as §1, §2, §3, §4, §5
Pflanzen von diploidem Roggen Chulpan werden in der V.Periode der Organogenese mit einer 1%igen wäßrigen Emulsion von 1,1,3-Tribrompropan, 1,1,3-Tribrom-4-chlorbutan, 1,1,2,3-Tetrabrompropan, 1,2,3-Tribrompropan, 1,2-Dibrompropan, 1,1,3-Tribrom-3-ohlorpropan, 1,2-Dibrom-3--chlorpropan, 1,3-Dibrompropan, 1,1,1,3-Tetrabromheptan, 1,1,3-Tribromheptan bzw. 1,2-Dibromheptan behandelt. Die Emulsion enthält 0,5 Masse% C12-C14-Kalziumalkylbenzolsul- fonat und 0,01 Masse% Dimethylsulfoxid. Der Verbrauch an Präparat beträgt 10 kg/ha. Die Prüfergebnisse sind in der Tabelle 11 angegeben. Die gleichen Ergebnisse sind bei der Behandlung von diploidem Roggen Chulpan in der VI. Periode der Organogenese erhalten.

The test system of data set [5] is Hirse Sorte Mironovskoye 94. The data set is described as follows: Field test of gametocidal activity, millet Mironovskoye 94. Format: in vivo.
Excerpt: as §1, §2, §3, §4, §5
Pflanzen der Hirse Sorte Mironovskoye 94 werden in der V.Periode der Organogenese mit einer 1%igen wäßrigen Emulsion von 1,1,3-Tribrompropan, 1,2,3-Tribrompropan, 1,2-Dibrompropan, 1,2-Dibrom-3-chlorpropan, 1,3-Dibrompropan, 1,1,1,3-Tetrabromheptan, 1,1,3-Tribromheptan, 1,2-Dibromheptan behandelt. Die Emulsion enthält 0,5 Masse% C12-C14--Kalziumalkylbenzolaulfonat und 0,01 Masse% Dimethylsulfoxid als Adjuvans. Der Verbrauch an Präparat beträgt 6 kg/ha bei 600 1 Wasserdurchsatz. Die Prüfergebnisse sind in der Tabelle 15 angegeben. Die gleichen Ergebnisse sind bei der Behandlung der Hirse Sorte Mironovskoye 94 in der VI. Periode der Organogenese erhalten.

Data set [6] is described as follows: Toxicity in animal test (LD50). Also noted: species or system Mäuse. The following applies: in vivo, mice stated only for 1,1,3-Tribrompropan, species not given for the others. The source says:
Alle erfindungsgemäßen Polybromalkane, die als Sterilisationsmittel zur Verwendung kommen, waren auf die Toxizität im Tierversuch geprüft. Die Prüfergebnisse haben ergeben, daß die angegebenen Verbindungen von schwacher oder mittlerer Toxizität sind.

The subject of data set [7] is tetraploidem Roggen Belta. Description: Field test of gametocidal activity, tetraploid rye Belta. The note with it: period V, 1% aqueous emulsion, 6 kg/ha in 600 l water. Type of data set: in vivo.
Excerpt: as §1, §2, §3, §4, §5
Pflanzen von tetraploidem Roggen Belta werden in der V.Periode der Organogenese (nach Kupermann) mit einer 1%igen wäßrigen Emulsion von 1,1,3-Tribrompropan, 1,1,3--Tribrom-4-chlorbutan, 1,1,2,3-Tetrabrompropan, 1,2,3-Tribrompropan, 1,1,3-Tribrom-3-chlorpropan bzw. 1,2-Dibrom--3-chlorpropan behandelt.
Die Emulsion enthält 0,5 Masse% C12-C14-Kalziumalk^yl-benzolsulfonat und 0,01 Masse% Dimethylsulfoxid. Der Verbrauch an Präparat beträgt 6 kg/ha bei 600 1 Wasserdurchsatz.Die Prüfergebnisse sind in der Tabelle 7 angegeben. Die gleichen Ergebnisse sind bei der Behandlung von tetraploidem Roggen Belta in der VI. Periode der Organogenese erhalten.

In data set [8] the test system is diploidem Roggen Kharkovskaya 55. Description: Field test of gametocidal activity, diploid rye Kharkovskaya 55. Format: in vivo.
Excerpt: as §1, §2, §3, §4, §5
Pflanzen von diploidem Roggen Kharkovskaya 55 werden in der V. Periode der Organogenese mit einer l%igen wäßrigen Emulsion von 1,1,3-Tribrompropan, 1,2,3-Tribrompropan, 1,2-Dibrompropan, 1,1,3-Tribrom-3-chlorpropan, 1,2--Dibrom-3-chlorpropan, 1,1,1,3-Tetrabromheptan, 1,1,3-Tribromheptan bzw. 1,2-Dibromheptan behandelt. Die Emulsion enthält 0,5 Masse% C12-C14-Kalziumalkylbenzolsulfonat und 0,01 Masse% Dimethylformamid als Adjuvans. Der Verbrauch an Präparat beträgt 6 kg/ha bei 600 1 Wasserdurchsatz. Die Prüfergebnisse sind in der Tabelle 13 angegeben. Die gleichen Ergebnisse sind bei der Behandlung von diploidem Roggen Kharkovskaya 55 in der VI. Periode der Organogenese erhalten.

Where [9] appears, read: Mironovskoye 94, period V, 1% aqueous emulsion, 6 kg/ha in 600 l water.
Where [10] appears, read: read-out: Prozentsatz der Sterilität.
The mark [11] stands for this setting: Kharkovskaya 55, period V, 1% aqueous emulsion, 6 kg/ha in 600 l water.

What is called LD50 is the dose expected to kill half of the subjects tested. The low end stands for greater toxicity, the high end for lower toxicity. As for `BrCCCBr` [Beispiel 8, 1,3-Dibrompropan], in [1], the “Kornzahl der Ähre bei freier Bestäubung” value is reported as 38,7; the “Kornzahl der Ähre im Isolator” value is on record as 0,0; the “Prozentsatz des Ansetzens von Samen bei freier Bestäubung” value was 93,0%; the pest or weed control at 1 %, 10000 g/ha was determined as 100%. Also, in [2], the “Kornzahl der Ähre bei freier Bestäubung” value is on record as 32,7, the “Kornzahl der Ähre im Isolator” value was 0,0, the “Prozentsatz des Ansetzens von Samen bei freier Bestäubung” value is given as 85,6% and the pest or weed control at 6000 g/ha is 100%. Also, in data set [3], the “Kornzahl der Ähre bei freier Bestäubung” value is given as 37,1, the “Kornzahl der Ähre im Isolator” value was 0,0 and the “Prozentsatz der Sterilität” value is on record as 100,0%. The “Prozentsatz des Ansetzens von freier Bestäubung” value in [3] (control = 100) is 91,8%. In addition, in [4], the “Kornzahl der Ähre bei freier Bestäubung” value is on record as 24,7, the “Kornzahl der Ähre im Isolator” value is on record as 0,0 and the “Prozentsatz der Sterilität” value is given as 100,0%. In addition, in the data set with diploidem Roggen Chulpan, the “Kornzahl der Ähre bei freier Bestäubung” value is reported as 41,7, the “Kornzahl der Ähre im Isolator” value is given as 0,1, the “Prozentsatz des Ansetzens von Samen bei freier Bestäubung” value is 83,2% and the pest or weed control at 10000 g/ha came to 99.8%. Also, in data set [5] (setting [9]), the “Kornzahl der Rispe bei freier Bestäubung” value is listed as 212,7 and the “Kornzahl der Rispe im Isolator” value was 0,0. The “Prozentsatz des Ansetzens von Samen bei freier Bestäubung” value in [5] (Mironovskoye 94, period V, 1% aqueous emulsion, 6 kg/ha in 600 l water, control = 100) is listed as 86,9%. For the same compound, in [5] (setting [10]), the pest or weed control at 6000 g/ha is 100%. Besides, the 50% lethal dose (LD50) in data set [6] is 473 ± 25 mg/kg.
As to `CCCCCC(Br)C(Br)Br` (stereo not drawn) [Beispiel 28, 1,1,2-Tribromheptan], in data set [4], the “Kornzahl der Ähre bei freier Bestäubung” value was 29,2, the “Kornzahl der Ähre im Isolator” value is reported as 0,0 and the “Prozentsatz der Sterilität” value is given as 100,0%. Besides, in [4] (control = 100), the “Prozentsatz des Ansetzens von Samen bei freier Bestäubung” value is on record as 94,5%.
With `ClC(Br)CC(Br)Br` (stereo not drawn) [Beispiel 6, 1,1,3-Tribrom-3--chlorpropan], the “Kornzahl der Ähre bei freier Bestäubung” value in data set [1] is 37,0; in [2], 37,8; in data set [7] it was 39,8; in the data set on diploidem Roggen Chulpan, 47,7; in data set [8] (setting [11]) it was 41,7. Also, the “Kornzahl der Ähre im Isolator” value in data set [1] is reported as 1,2; in data set [2] it was 1,2; in data set [7], 0,1; in the data set with diploidem Roggen Chulpan it was 0,6; in data set [8] (setting [11]), 0,1. Also, the “Prozentsatz des Ansetzens von Samen bei freier Bestäubung” value is recorded as 99,2% in [1]; 98,9% in data set [2]; 90,0% in [7] (control = 100); 95,2% in the data set on diploidem Roggen Chulpan; 92,5% in data set [8] (Kharkovskaya 55, period V, 1% aqueous emulsion, 6 kg/ha in 600 l water, control = 100). In addition, the pest or weed control at 1 %, 10000 g/ha in data set [1] was determined as 96.8%. For the same compound, the values for the pest or weed control at 6000 g/ha in [2] and in data set [8] (setting [10]) were 96.3% and 99.8%, respectively. Besides, the “Prozentsatz der Sterilität” value in data set [7] was 99,9%. Also, in the data set on diploidem Roggen Chulpan, the pest or weed control at 10000 g/ha worked out at 98.8%.
